Paper PMC7177888, “Aryl-4,5-dihydro-1H-pyrazole-1-carboxamide Derivatives Bearing a Sulfonamide Moiety Show Single-digit Nanomolar-to-Subnanomolar Inhibition Constants against the Tumor-associated Human Carbonic Anhydrases IX and XII” (International Journal of Molecular Sciences, 2020)
Read-outs that look alike come from different tables or passages of the source.

How the values were obtained:
Assay in all cases: stopped-flow CO2 hydrase assay
Type in all cases: biochemical
CA I = biological target: T1, CA I (Homo sapiens, UniProt P00915)
T1 construct: gene CA1; recombinant, obtained in-house
T1 sequence (P00915 2-261): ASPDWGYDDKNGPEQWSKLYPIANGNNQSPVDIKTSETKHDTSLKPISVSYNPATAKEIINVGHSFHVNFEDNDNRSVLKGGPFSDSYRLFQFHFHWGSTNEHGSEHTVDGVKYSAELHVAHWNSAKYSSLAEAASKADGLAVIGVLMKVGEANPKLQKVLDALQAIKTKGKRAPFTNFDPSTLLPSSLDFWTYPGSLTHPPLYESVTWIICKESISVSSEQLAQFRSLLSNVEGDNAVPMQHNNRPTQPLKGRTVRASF
Procedure, shortened: (§1)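 In-house recombinant human carbonic anhydrase isoforms were tested for CO2 hydration on an Applied Photophysics stopped-flow instrument, using 20 mM Hepes (pH 7.5), 20 mM Na2SO4 and 0.2 mM phenol red, with readings at 557 nm over 10–100 s and CO2 at 1.7–17 mM. Enzyme and inhibitor were preincubated for 15 min at room temperature, with dilutions made from 0.1 mM aqueous stocks down to 0.01 nM. Inhibition constants (Ki) were obtained by nonlinear least-squares fitting with the Cheng–Prusoff equation from initial rates corrected for the uncatalysed reaction. Each value is the mean of at least three determinations.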

CA IX = biological target: T2, CA IX (Homo sapiens, UniProt Q16790)
T2 construct: gene CA9; recombinant, obtained in-house
Procedure, shortened: as §1

CA XII = biological target: T3, CA XII (Homo sapiens, UniProt O43570)
T3 construct: gene CA12; recombinant, obtained in-house
T3 sequence (O43570 25-354): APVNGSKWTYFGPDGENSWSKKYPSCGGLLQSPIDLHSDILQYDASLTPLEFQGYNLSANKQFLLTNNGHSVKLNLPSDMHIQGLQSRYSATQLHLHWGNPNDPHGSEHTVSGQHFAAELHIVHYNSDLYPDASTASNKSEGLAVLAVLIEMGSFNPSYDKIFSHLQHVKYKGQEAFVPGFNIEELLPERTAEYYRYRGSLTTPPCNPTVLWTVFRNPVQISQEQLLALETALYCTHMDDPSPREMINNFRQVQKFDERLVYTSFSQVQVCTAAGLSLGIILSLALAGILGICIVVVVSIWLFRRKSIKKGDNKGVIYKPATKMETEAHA
Procedure, shortened: as §1

CA VII = biological target: T4, CA VII (Homo sapiens, UniProt P43166)
T4 construct: gene CA7; recombinant, obtained in-house
T4 sequence (P43166 whole entry): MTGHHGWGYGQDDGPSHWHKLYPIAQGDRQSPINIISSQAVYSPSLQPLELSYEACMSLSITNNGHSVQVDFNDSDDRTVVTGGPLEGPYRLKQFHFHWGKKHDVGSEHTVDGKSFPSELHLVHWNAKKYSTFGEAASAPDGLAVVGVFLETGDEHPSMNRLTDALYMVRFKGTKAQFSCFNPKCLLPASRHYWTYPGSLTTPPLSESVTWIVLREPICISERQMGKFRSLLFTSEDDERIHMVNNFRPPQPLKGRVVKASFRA
Procedure, shortened: as §1

CA II = biological target: T5, CA II (Homo sapiens, UniProt P00918)
T5 construct: gene CA2; recombinant, obtained in-house
Procedure, shortened: as §1

Row | Compound | Ki (CA I) [nM] | Ki (CA IX; read-out: KI (nM) / CA IX) [nM] | Ki (CA XII) [nM] | Ki (CA VII) [nM] | Ki (CA II) [nM] | Ki (CA IX; read-out: KI (nM) / CA II) [nM]
1 | NS(=O)(=O)c1ccc(NC(=O)N2N=C(c3ccccc3)CC2c2ccccc2)cc1 (stereo not drawn) [compound 5, 3,5-Diphenyl-4,5-dihydro-pyrazole-1-carboxylic acid (4-sulfamoyl-phenyl)-amide] | 382 | 1.3 | 7.7 | 33.2 | 67.3 | –
2 | NS(=O)(=O)c1ccc(NC(=O)N2N=C(c3ccccc3)CC2c2ccc(Cl)cc2)cc1 (stereo not drawn) [compound 6, 5-(4-Chlorophenyl)-3-phenyl-4,5-dihydro-pyrazole-1-carboxylic acid (4-sulfamoyl-phenyl)-amide] | 36.2 | 1.4 | 1.2 | 7.7 | 8.2 | –
3 | NS(=O)(=O)c1ccc(NC(=O)N2N=C(c3ccccc3)CC2c2ccc(F)cc2)cc1 (stereo not drawn) [compound 7, 5-(4-Flurophenyl)-3-phenyl-4,5-dihydro-pyrazole-1-carboxylic acid (4-sulfamoyl-phenyl)-amide] | 252 | 1.5 | 6.3 | 2.3 | 58.2 | –
4 | NS(=O)(=O)c1ccc(NC(=O)N2N=C(c3ccccc3)CC2c2c(F)cccc2Cl)cc1 (stereo not drawn) [compound 8, 5-(2-Chloro-6-fluorophenyl)-3-phenyl-4,5-dihydro-pyrazole-1-carboxylic acid (4-sulfamoyl-phenyl)-amide] | 38.3 | 1.5 | 1.4 | 2.4 | 5.2 | –
5 | NS(=O)(=O)c1ccc(NC(=O)N2N=C(c3ccccc3)CC2c2ccc(Cl)cc2Cl)cc1 (stereo not drawn) [compound 11, 5-(2,4-Dichlorophenyl)-3-phenyl-4,5-dihydro-pyrazole-1-carboxylic acid (4-sulfamoyl-phenyl)-amide] | 39.5 | 1.4 | 0.84 | 2.5 | 5.4 | –
6 | NS(=O)(=O)c1ccc(NC(=O)N2N=C(c3ccc(Cl)cc3)CC2c2ccccc2)cc1 (stereo not drawn) [compound 12, 3-(4-Chlorophenyl)-5-phenyl-N-(4-sulfamoylphenyl)-4,5-dihydro-1H-pyrazole-1-carboxamide] | 239 | 16.5 | 9.2 | 350 | 233 | –
7 | Cc1ccc(C2CC(c3ccc(Cl)cc3)=NN2C(=O)Nc2ccc(S(N)(=O)=O)cc2)cc1 (stereo not drawn) [compound 13, 3-(4-Chlorophenyl)-N-(4-sulfamoylphenyl)-5-(p-tolyl)-4,5-dihydro-1H-pyrazole-1-carboxamide] | 66.7 | 2.9 | 9.2 | 4.5 | 12.3 | –
8 | NS(=O)(=O)c1ccc(NC(=O)N2N=C(c3ccc(Cl)cc3)CC2c2ccc(Cl)cc2)cc1 (stereo not drawn) [compound 14, 3,5-Bis(4-chlorophenyl)-N-(4-sulfamoylphenyl)-4,5-dihydro-1H-pyrazole-1-carboxamide] | 238 | 11.4 | 1.1 | 3.3 | 12.7 | –
9 | NS(=O)(=O)c1ccc(NC(=O)N2N=C(c3ccc(Cl)cc3)CC2c2ccc(F)cc2)cc1 (stereo not drawn) [compound 15, 3-(4-Chlorophenyl)-5-(4-fluorophenyl)-N-(4-sulfamoylphenyl)-4,5-dihydro-1H-pyrazole-1-carboxamide] | 617 | 2.7 | 1 | 3.2 | 71.3 | –
10 | NS(=O)(=O)c1ccc(NC(=O)N2N=C(c3ccc(Cl)cc3)CC2c2ccccc2Cl)cc1 (stereo not drawn) [compound 16, 5-(2-Chlorophenyl)-3-(4-chlorophenyl)-N-(4-sulfamoylphenyl)-4,5-dihydro-1H-pyrazole-1-carboxamide] | 297 | – | 1.7 | 4.3 | 8.8 | 8
11 | NS(=O)(=O)c1ccc(NC(=O)N2N=C(c3ccc(Cl)cc3)CC2c2ccc(Cl)cc2Cl)cc1 (stereo not drawn) [compound 17, 3-(4-Chlorophenyl)-5-(2,4-dichlorophenyl)-N-(4-sulfamoylphenyl)-4,5-dihydro-1H-pyrazole-1-carboxamide] | 770 | 15 | 1.3 | 27.6 | 13.5 | –
12 | NS(=O)(=O)c1ccc(NC(=O)N2N=C(c3ccc(Cl)cc3)CC2c2cccs2)cc1 (stereo not drawn) [compound 18, 3-(4-Chlorophenyl)-N-(4-sulfamoylphenyl)-5-(thiophen-2-yl)-4,5-dihydro-1H-pyrazole-1-carboxamide] | 726 | 2.5 | 0.62 | 2.9 | 9.2 | –
13 | NS(=O)(=O)c1ccc(NC(=O)N2N=C(c3ccc(Br)cc3)CC2c2ccc(F)cc2)cc1 (stereo not drawn) [compound 25, 3-(4-Bromophenyl)-5-(4-flurophenyl)-4,5-dihydro-pyrazole-1-carboxylic acid (4-sulfamoyl-phenyl)-amide] | 38.2 | 1.4 | 2.4 | 2.6 | 5.5 | –

Further compounds by falling Ki (CA I), results first:

Row | Ki (CA I) [nM] | Ki (CA IX; read-out: KI (nM) / CA IX) [nM] | Ki (CA XII) [nM] | Ki (CA VII) [nM] | Ki (CA II) [nM] | Ki (CA IX; read-out: KI (nM) / CA II) [nM] | Compound
14 | 368 | 2.8 | 0.82 | 2.7 | 9.4 | – | COc1ccc(C2CC(c3ccc(Cl)cc3)=NN2C(=O)Nc2ccc(S(N)(=O)=O)cc2)cc1 (stereo not drawn) [compound 21, 3-(4-Chlorophenyl)-5-(4-methoxyphenyl)-N-(4-sulfamoylphenyl)-4,5-dihydro-1H-pyrazole-1-carboxamide]
15 | 293 | 1.3 | 6.8 | 2.4 | 7.1 | – | NS(=O)(=O)c1ccc(NC(=O)N2N=C(c3ccccc3)CC2c2c3ccccc3cc3ccccc23)cc1 (stereo not drawn) [compound 10, 5-Anthracene-9-yl-3-phenyl-4,5-dihydro-pyrazole-1-carboxylic acid (4-sulfamoyl-phenyl)-amide]
16 | 185 | 1.4 | 2.5 | 1.9 | 5.2 | – | NS(=O)(=O)c1ccc(NC(=O)N2N=C(c3ccccc3)CC2c2cccs2)cc1 (stereo not drawn) [compound 9, 3-Phenyl-5-thiophene-2-yl-4,5-dihydro-pyrazole-1-carboxylic acid (4-sulfamoyl-phenyl)-amide]
17 | 166 | 2.2 | 1.5 | 2.3 | 9.3 | – | COc1ccc(C2CC(c3ccc(Cl)cc3)=NN2C(=O)Nc2ccc(S(N)(=O)=O)cc2)cc1OC (stereo not drawn) [compound 22, 3-(4-Chlorophenyl)-5-(3,4-dimethoxyphenyl)-N-(4-sulfamoylphenyl)-4,5-dihydro-1H-pyrazole-1-carboxamide]
18 | 74.2 | 76.6 | 0.99 | 2.1 | 7.6 | – | NS(=O)(=O)c1ccc(NC(=O)N2N=C(c3ccc(Cl)cc3)CC2c2ccccc2O)cc1 (stereo not drawn) [compound 20, 3-(4-Chlorophenyl)-5-(2-hydroxyphenyl)-N-(4-sulfamoylphenyl)-4,5-dihydro-1H-pyrazole-1-carboxamide]
19 | 45.5 | 14.3 | 0.89 | 2.7 | 10.7 | – | NS(=O)(=O)c1ccc(NC(=O)N2N=C(c3ccc(Br)cc3)CC2c2ccc(Cl)cc2)cc1 (stereo not drawn) [compound 24, 3-(4-Bromophenyl)-5-(4-chlorophenyl)-4,5-dihydro-pyrazole-1-carboxylic acid (4-sulfamoyl-phenyl)-amide]
20 | 44.4 | 1.4 | 6.7 | 2.9 | 6.3 | – | NS(=O)(=O)c1ccc(NC(=O)N2N=C(c3ccc(Br)cc3)CC2c2ccccc2)cc1 (stereo not drawn) [compound 23, 3-(4-Bromophenyl)-5-phenyl-45-dihydro-pyrazole-1-carboxylic acid (4-sulfamoyl-phenyl)-amide]
21 | 42.7 | 2.7 | 6.8 | 2.3 | 10.8 | – | NS(=O)(=O)c1ccc(NC(=O)N2N=C(c3ccc(Cl)cc3)CC2c2c(F)cccc2Cl)cc1 (stereo not drawn) [compound 19, 5-(2-Chloro-6-fluorophenyl)-3-(4-chlorophenyl)-N-(4-sulfamoylphenyl)-4,5-dihydro-1H-pyrazole-1-carboxamide]
